Patent EP2102204B1, “NEW AMINOPYRROLO[1,2- A]INDOLE ET AMINOPYRIDAZINO[1,6-A]INDOLE DERIVATIVES, METHOD FOR PREPARING THE SAME AND PHARMACEUTICAL COMPOSITIONS CONTAINING THE SAME” (Les Laboratoires Servier, priority 2007, dated 2008)

Tested on: protéine tyrosine hydroxylase (TH)
Assay: Induction of tyrosine hydroxylase in the locus coeruleus of mice (immunodetection and image analysis of brain sections)
Assay type: in vivo, souris Balb/C
Conditions: i.p. 20 mg/kg, single injection, 3 days after, % par rapport à la valeur moyenne du groupe témoin; for quantité de TH au niveau du LC, coupe 1: coupe 1 du LC (sens antérieur vers postérieur); for quantité de TH au niveau du LC, coupe 2: coupe 2 du LC (sens antérieur vers postérieur); for quantité de TH au niveau du LC, coupe 3: coupe 3 du LC (sens antérieur vers postérieur); for quantité de TH au niveau du LC, coupe 4: coupe 4 du LC (sens antérieur vers postérieur); for quantité de TH au niveau du LC, coupe 5: coupe 5 du LC (sens antérieur vers postérieur); for quantité de TH au niveau du LC, coupe 6: coupe 6 du LC (sens antérieur vers postérieur); for quantité de TH au niveau du LC, coupe 7: coupe 7 du LC (sens antérieur vers postérieur); for quantité de TH au niveau du LC, coupe 8: coupe 8 du LC (sens antérieur vers postérieur)
Excerpt: Il est recherché, parmi les dérivés, ceux qui sont capables d'induire une augmentation de la protéine tyrosine hydroxylase (TH) dans le cerveau de la souris Balb/C, au niveau du locus coeruleus (LC).
Les animaux utilisés sont des souris mâles de la lignée pure Balb/C (Charles River Laboratories), âgées de 7 à 8 semaines au moment du traitement.
Les souris reçoivent une injection unique par voie intrapéritonéale du composé à tester, dissous dans une solution d'HCl 0,04 M (contrôle correspondant : HCl […]) si le composé est suffisamment soluble, ou dans l'huile d'olive 90 % / DMSO 10 % (contrôle correspondant : huile d'olive 90 % / DMSO 10 %) pour les composés insolubles en milieu aqueux.
Trois jours après l'injection de chaque molécule, tous les animaux sont sacrifiés par décapitation. Les cerveaux extraits sont ensuite congelés dans de l'azote liquide et conservés à -80° C.
Des coupes coronales de 8 microns d'épaisseur sont pratiquées le long de l'axe postéro-antérieur du LC et fixées. Les coupes sont transférées sur membranes Immobilon-P. La TH est mesurée par immunodétection et analyse d'image.

SMILES	quantité de TH au niveau du LC, coupe 1	quantité de TH au niveau du LC, coupe 2	quantité de TH au niveau du LC, coupe 3	quantité de TH au niveau du LC, coupe 4	quantité de TH au niveau du LC, coupe 5	quantité de TH au niveau du LC, coupe 6	quantité de TH au niveau du LC, coupe 7	quantité de TH au niveau du LC, coupe 8	also measured
CN1CCC[C@@H]2C(=O)N3c4ccccc4C[C@H]3[C@@H]21 (racemic) [Exemple 7, (4aSR,11aSR,11bRS)-1-Méthyl-1,2,3,4,4a,11,11a,11b-octahydropyrido[2',3':3,4]pyrrolo[1,2-a]indol-5-one]									quantité de TH au niveau du LC, coupe 1 (listed as Ex.7, 20 mg/kg): 59%; quantité de TH au niveau du LC, coupe 2 (listed as Ex.7, 20 mg/kg): 57%; quantité de TH au niveau du LC, coupe 3 (listed as Ex.7, 20 mg/kg): 57%; quantité de TH au niveau du LC, coupe 4 (listed as Ex.7, 20 mg/kg): 51%; quantité de TH au niveau du LC, coupe 5 (listed as Ex.7, 20 mg/kg): 28%; quantité de TH au niveau du LC, coupe 6 (listed as Ex.7, 20 mg/kg): 23%; quantité de TH au niveau du LC, coupe 7 (listed as Ex.7, 20 mg/kg): 13%; quantité de TH au niveau du LC, coupe 8 (listed as Ex.7, 20 mg/kg): 4%
N#CCN1CCC[C@@H]2C(=O)N3c4ccccc4C[C@H]3[C@@H]21 (racemic) [Exemple 10, [(4aSR,11aSR,11bRS)-5-Oxo-3,4,4a,11,11a,11b-hexahydro-2H,5H-pyrido[2',3':3,4]pyrrolo[1,2-a]indol-1-yl]acétonitrile]	58%	50%	49%	47%	34%	26%	18%	1%	
O=C1[C@H]2CCCN[C@H]2[C@@H]2Cc3cc(F)ccc3N12 (racemic) [Exemple 24, (4aSR,11aSR,11bRS)-9-Fluoro-1,2,3,4,4a,11,11a,11b-octahydropyrido[2',3':3,4]pyrrolo[1,2-a]indol-5-one]	51%	71%	63%	55%	44%	33%	6%	3%	
Cc1ccc2c(c1)CC1C3=C(CCCN3C)C(=O)N21 (racemic) [Exemple 40, (11aRS)-1,9-Diméthyl-1,2,3,4,11,11a-hexahydropyrido [2',3':3,4] pyrrolo[1,2-a]indol-5-one]	72%	96%	66%	66%	58%	34%	39%	4%	
O=C1C[C@@H]2[C@H]3[C@@H](CCN2Cc2ccccc2)c2ccccc2N13 (racemic) [Exemple 53, (3aRS,10bSR,10cRS)-3-Benzyl-2,3,3a,4,10b,10c-hexahydrobenzo [b]pyrido [2,3,4-gh]pyrrolizin-5(1H)-one]	82%	68%	64%	71%	53%	52%	32%	18%	
C=CCN1CCC[C@@H]2C(=O)N3c4ccccc4C[C@@H]3[C@H]21 [Exemple 6, (4aSR, 11aRS,11bSR)-1-Allyl-1,2,3,4,4a,11,11a,11b-octahydropyrido[2 3'.3':3,4]pyrrolo[1,2-a]indol-5-one]									quantité de TH au niveau du LC, coupe 1 (listed as Ex.6, 20 mg/kg): 65%; quantité de TH au niveau du LC, coupe 2 (listed as Ex.6, 20 mg/kg): 62%; quantité de TH au niveau du LC, coupe 3 (listed as Ex.6, 20 mg/kg): 50%; quantité de TH au niveau du LC, coupe 4 (listed as Ex.6, 20 mg/kg): 53%; quantité de TH au niveau du LC, coupe 5 (listed as Ex.6, 20 mg/kg): 41%; quantité de TH au niveau du LC, coupe 6 (listed as Ex.6, 20 mg/kg): 27%; quantité de TH au niveau du LC, coupe 8 (listed as Ex.6, 20 mg/kg): 6%
CCCN1CC[C@@H]2c3ccccc3N3NC(=O)C[C@H]1[C@@H]23 [Exemple 15, (3aSR,6aRS,10cRS)-4-Propyl-(3a,4,5,6,6a,10c-hexahydro)-3H-1,4,10b-triazafluoranthén-2-one]	79%	75%	72%	79%	33%	27%	7%	5%	
Cc1ccc2c(c1)cc1n2C(=O)C2=C1N(C)CCC2 [Exemple 38, 1,9-Diméthyl-1,2,3,4-tétrahydropyrido[2',3':3,4]pyrrolo[1,2-a]indol-5-one]	64%	99%	76%	62%	27%	14%	-3%	5%	
C=CCN1CCC[C@@H]2C(=O)N3c4ccccc4C[C@@H]3[C@H]21 [Exemple 43, (4aS,11aR,11bS)-1-Allyl-1,2,3,4,4a,11,11a,11b-octahydropyrido[2',3':3,4]pyrrolo[1,2-a]indol-5-one]							9%		quantité de TH au niveau du LC, coupe 1 (listed as Ex.43, 20 mg/kg): 69%; quantité de TH au niveau du LC, coupe 2 (listed as Ex.43, 20 mg/kg): 88%; quantité de TH au niveau du LC, coupe 3 (listed as Ex.43, 20 mg/kg): 87%; quantité de TH au niveau du LC, coupe 4 (listed as Ex.43, 20 mg/kg): 60%; quantité de TH au niveau du LC, coupe 5 (listed as Ex.43, 20 mg/kg): 36%; quantité de TH au niveau du LC, coupe 6 (listed as Ex.43, 20 mg/kg): 34%; quantité de TH au niveau du LC, coupe 8 (listed as Ex.43, 20 mg/kg): 4%
